Reference: patent publication US11629171B2, “Beta-hairpin peptidomimetics” (POLYPHOR AG, priority 2017, dated 2023)
≈ marks a conversion by molar mass, not a printed value. Where a SMILES comes first, the peptide text is derived from it. Bridges are numbered along the chain shown (N, C = ends). Roman numbers before positions name the chains, in order. [ ]: non-standard residue; d: D form. dDab = NCC[C@@H](N)C(=O)O; Dab = NCC[C@H](N)C(=O)O; Dap = NC[C@H](N)C(=O)O

Assays:
[1] = system: human red blood cells (hRBC); test: Hemolysis; format: cell-based; conditions: red cells of human, 1 h, 200
Procedure, shortened: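 Washed fresh hRBC (20% v/v) were incubated with peptides at 200 μg/mL for 1 h at 37° C with shaking at 300 rpm. Supernatant OD540 was read after centrifugation and dilution, blank-corrected, and expressed as percent of the 2% Triton X-100 (100% lysis) control; PBS with 10% water gave 0%.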

[2] = system: Enterobacter cloacae 848840; format: cell-based; conditions: 848840
Procedure, shortened: (§1)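 Cation-adjusted MH-II broth, 0.002% polysorbate 80, inoculum near 10^6 CFU/mL. MIC read visually after 18-20 h, 35° C; units μg/mL.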

[3] = system: Klebsiella pneumoniae 968733; format: cell-based; conditions: 968733
Procedure, shortened: as §1

[4] = system: Pseudomonas aeruginosa ATCC 27853; format: cell-based; conditions: ATCC 27853
Procedure, shortened: as §1

Escherichia coli 926415 = format: cell-based; conditions: 926415
Procedure, shortened: as §1

[5] = system: Escherichia coli ATCC 25922; format: cell-based; conditions: ATCC 25922
Procedure, shortened: as §1

[6] = system: Acinetobacter baumannii 872842; format: cell-based; conditions: 872842
Procedure, shortened: as §1

[7] = system: Klebsiella pneumoniae SSI #3010; format: cell-based; conditions: SSI #3010
Procedure, shortened: as §1

[8] = system: Acinetobacter baumannii DSM 30008; format: cell-based; conditions: DSM 30008
Procedure, shortened: as §1

male ICR mice = test: Tolerability in a mouse model (Maximum Tolerated Dose assay); format: in vivo; conditions: 2 × 40 mg/kg s.c. at a 12-hr interval, groups of 3
Procedure, shortened: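 Peptides in 0.9% NaCl (pH 6.5-7.6) given s.c. at 30 or 40 mg/kg, twice 12 h apart, to groups of 3 male ICR mice (23±3 g). Acute toxic signs (mortality, convulsions, tremors, sedation) and autonomic effects (diarrhea, salivation, piloerection) observed for 30 min after each dose.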

## CC[C@H](C)[C@@H]1NC(=O)[C@H](CO)NC(=O)[C@H](Cc2c[nH]c3ccccc23)NC(=O)[C@H](CO)NC(=O)[C@@H](CCN)NC(=O)[C@H](CCC(=O)N[C@@H](CCN)C(=O)N[C@H](C(=O)N[C@@H](CN)C(=O)N[C@H]2CCNC(=O)[C@H]([C@@H](C)O)NC(=O)[C@H](CCN)NC(=O)[C@H](CCN)NC(=O)[C@H]([C@@H](C)O)NC(=O)[C@@H](CC(C)C)NC(=O)[C@H](CCN)NC2=O)[C@@H](C)O)NC(=O)[C@H](CCN)NC(=O)[C@H](Cc2ccc(O)cc2)NC(=O)[C@@H](NC(=O)[C@@H](NC(C)=O)C(C)C)CSSC[C@@H](C(=O)N[C@@H](CO)C(=O)N[C@H](C)C(N)=O)NC1=O [Ex. 380] (I: Ac-VCY[Dab]E[dDab]SWSICS[dA]-NH2 / II: [Dab]T[Dap][Dab][Dab][dL]T[Dab][Dab]T; disulfide I:2-I:11; amide I:5-II:N; lactam II:4-II:C)
[1]
  Hemolysis at 200 μg/mL: <1%
[2]
  MIC: 0.125 µg/mL (≈ 0.0506 µM)
[3]
  MIC: 0.5 µg/mL (≈ 0.202 µM)
[4]
  Pseudomonas aeruginosa ATCC 27853 MIC: 0.125 µg/mL
Escherichia coli 926415
  MIC: 0.125 µg/mL (≈ 0.0506 µM)
[5]
  Escherichia coli ATCC 25922 MIC: 0.03125 µg/mL
[6]
  MIC: 0.25 µg/mL (≈ 0.101 µM)
[7]
  Klebsiella pneumoniae SSI #3010 MIC: 0.0625 µg/mL
[8]
  Acinetobacter baumannii DSM 30008 MIC: 0.0625 µg/mL
Male ICR mice
  Mortality and dose: 0/3 died at 2 × 40 mg/kg
